Numbered stars: 1 amine (or outer) side, 2 acyl side, 3 side chain; on linkers, the order of the positions; unused ones are H or OH. Bridge positions count the residues as written; N and C are the ends. Square brackets hold non-standard residues; d marks the D form. Side chains are listed from the residue outwards. Peptide text beside a SMILES is read from it. ξ: configuration not given here. ξPro(4ξ-NH2) = O=C(C1CC(N[*:3])CN1[*:1])[*:2]; ξpGlu = O=C1CCC(C(=O)O)N1
Columns and labels:
[1] = target: T1, Nicotinic acetylcholine receptor alpha6/alpha3/beta4 (Rattus norvegicus, UniProt P04757+P12392+P43143); test: (§1) Inhibition of rat alpha6/alpha3beta4 nAChR expressed in Stage V-VI Xenopus laevis Oocytes assessed as inhibition of acetylcholine-induced current in presence of acetylcholine by electrophysiological recording; assay type: cell-based, Oocyte
T1 sequence (P04757 whole entry): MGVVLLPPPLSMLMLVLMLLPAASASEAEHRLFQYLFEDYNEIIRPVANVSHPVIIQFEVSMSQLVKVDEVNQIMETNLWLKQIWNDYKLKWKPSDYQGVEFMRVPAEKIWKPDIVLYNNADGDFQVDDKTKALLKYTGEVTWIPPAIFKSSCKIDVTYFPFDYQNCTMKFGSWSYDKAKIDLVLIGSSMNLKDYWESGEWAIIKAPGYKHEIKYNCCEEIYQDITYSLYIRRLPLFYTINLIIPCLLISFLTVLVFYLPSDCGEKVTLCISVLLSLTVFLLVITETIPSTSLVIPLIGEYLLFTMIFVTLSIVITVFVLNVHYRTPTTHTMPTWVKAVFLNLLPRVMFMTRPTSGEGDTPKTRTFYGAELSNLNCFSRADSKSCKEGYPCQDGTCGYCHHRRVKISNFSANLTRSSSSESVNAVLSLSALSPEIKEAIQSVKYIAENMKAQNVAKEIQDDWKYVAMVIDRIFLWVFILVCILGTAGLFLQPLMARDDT
T1 sequence (P12392 whole entry): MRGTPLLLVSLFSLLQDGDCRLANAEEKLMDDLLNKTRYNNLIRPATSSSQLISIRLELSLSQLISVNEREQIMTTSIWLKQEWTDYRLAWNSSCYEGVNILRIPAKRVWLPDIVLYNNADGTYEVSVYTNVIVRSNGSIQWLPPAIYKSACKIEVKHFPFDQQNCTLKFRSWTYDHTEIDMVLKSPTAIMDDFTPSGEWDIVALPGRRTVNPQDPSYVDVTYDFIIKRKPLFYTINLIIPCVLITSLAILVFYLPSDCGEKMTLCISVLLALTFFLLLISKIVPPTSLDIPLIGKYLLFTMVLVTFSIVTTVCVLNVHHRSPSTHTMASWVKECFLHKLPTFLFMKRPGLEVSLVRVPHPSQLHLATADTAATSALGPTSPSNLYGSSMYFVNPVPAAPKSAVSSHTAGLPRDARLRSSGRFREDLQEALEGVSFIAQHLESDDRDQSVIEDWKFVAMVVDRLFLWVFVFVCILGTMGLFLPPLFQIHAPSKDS
T1 sequence (P43143 whole entry): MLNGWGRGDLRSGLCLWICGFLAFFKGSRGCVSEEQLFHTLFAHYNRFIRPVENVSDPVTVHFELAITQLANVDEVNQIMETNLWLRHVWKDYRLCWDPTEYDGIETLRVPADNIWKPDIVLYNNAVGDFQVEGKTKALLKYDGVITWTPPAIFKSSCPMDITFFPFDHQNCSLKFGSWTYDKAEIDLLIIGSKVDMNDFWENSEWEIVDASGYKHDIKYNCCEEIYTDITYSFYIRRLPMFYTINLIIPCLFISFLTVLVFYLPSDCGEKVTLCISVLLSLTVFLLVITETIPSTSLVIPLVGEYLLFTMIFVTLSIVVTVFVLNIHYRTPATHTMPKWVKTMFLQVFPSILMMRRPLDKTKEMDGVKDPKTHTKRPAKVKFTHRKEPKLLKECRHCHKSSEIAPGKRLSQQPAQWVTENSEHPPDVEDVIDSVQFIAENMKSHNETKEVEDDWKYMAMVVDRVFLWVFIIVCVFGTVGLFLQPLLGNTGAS

[2] = target: Nicotinic acetylcholine receptor alpha6/alpha3/beta4 (Rattus norvegicus) (UniProt P04757+P12392+P43143); test: as §1, with “current by measuring recovery time at 10 uM preincubated with compound for 5 mins followed by washout” for “current”; assay type: cell-based; settings: Oocyte
[3] = target: Neuronal acetylcholine receptor; alpha2/beta4 (Rattus norvegicus) (UniProt P12389+P12392); test: Inhibition of rat alpha2/beta4 nAChR expressed in Stage V-VI Xenopus laevis Oocytes assessed as inhibition of acetylcholine-induced current at 10 uM in presence of acetylcholine by electrophysiological recording relative to control; assay type: cell-based; settings: Oocyte
[4] = target: Neuronal acetylcholine receptor; alpha4/beta4 (Rattus norvegicus) (UniProt P09483+P12392); test: Inhibition of rat alpha4/beta4 nAChR expressed in Stage V-VI Xenopus laevis Oocytes assessed as inhibition of acetylcholine-induced current at 10 uM in presence of acetylcholine by electrophysiological recording relative to control; assay type: cell-based; settings: Oocyte
[5] = target: Neuronal acetylcholine receptor; alpha3/beta2 (Rattus norvegicus, UniProt P04757+P12390); test: Inhibition of rat alpha3/beta2 nAChR expressed in Stage V-VI Xenopus laevis Oocytes assessed as inhibition of acetylcholine-induced current in presence of acetylcholine by electrophysiological recording; assay type: cell-based, Oocyte
[6] = target: Neuronal acetylcholine receptor; alpha4/beta4 (Rattus norvegicus, UniProt P09483+P12392); test: Inhibition of rat alpha4/beta4 nAChR expressed in Stage V-VI Xenopus laevis Oocytes assessed as inhibition of acetylcholine-induced current in presence of acetylcholine by electrophysiological recording; assay type: cell-based, Oocyte
[7] = target: Neuronal acetylcholine receptor; alpha2/beta2 (Rattus norvegicus, UniProt P12389+P12390); test: Inhibition of rat alpha2/beta2 nAChR expressed in Stage V-VI Xenopus laevis Oocytes assessed as inhibition of acetylcholine-induced current in presence of acetylcholine by electrophysiological recording; assay type: cell-based, Oocyte
[8] = target: Neuronal acetylcholine receptor; alpha4/beta2 (Rattus norvegicus) (UniProt P09483+P12390); test: Inhibition of rat alpha4/beta2 nAChR expressed in Stage V-VI Xenopus laevis Oocytes assessed as inhibition of acetylcholine-induced current at 10 uM in presence of acetylcholine by electrophysiological recording relative to control; assay type: cell-based; settings: Oocyte
[9] = target: Neuronal acetylcholine receptor; alpha4/beta2 (Rattus norvegicus, UniProt P09483+P12390); test: Inhibition of rat alpha4/beta2 nAChR expressed in Stage V-VI Xenopus laevis Oocytes assessed as inhibition of acetylcholine-induced current in presence of acetylcholine by electrophysiological recording; assay type: cell-based, Oocyte
[10] = target: Neuronal acetylcholine receptor; alpha3/beta4 (Rattus norvegicus, UniProt P04757+P12392); test: Inhibition of rat alpha3/beta4 nAChR expressed in Stage V-VI Xenopus laevis Oocytes assessed as inhibition of acetylcholine-induced current in presence of acetylcholine by electrophysiological recording; assay type: cell-based, Oocyte
[11] = target: Nicotinic acetylcholine receptor alpha1/beta1/epsilon/delta (Mus musculus) (UniProt P04756+P09690+P02716+P20782); test: Inhibition of mouse alpha1/beta1deltaepsilon nAChR expressed in Stage V-VI Xenopus laevis Oocytes assessed as inhibition of acetylcholine-induced current at 10 uM in presence of acetylcholine by electrophysiological recording relative to control; assay type: cell-based; settings: Oocyte
[12] = target: Nicotinic acetylcholine receptor alpha9/alpha10 (Rattus norvegicus) (UniProt P43144+Q9JLB5); test: Inhibition of rat alpha9/alpha10 nAChR expressed in Stage V-VI Xenopus laevis Oocytes assessed as inhibition of acetylcholine-induced current at 10 uM in presence of acetylcholine by electrophysiological recording relative to control; assay type: cell-based; settings: Oocyte
[13] = target: Neuronal acetylcholine receptor; alpha3/beta2 (Rattus norvegicus) (UniProt P04757+P12390); test: Inhibition of rat alpha3/beta2 nAChR expressed in Stage V-VI Xenopus laevis Oocytes assessed as inhibition of acetylcholine-induced current at 10 uM in presence of acetylcholine by electrophysiological recording relative to control; assay type: cell-based; settings: Oocyte
[14] = target: Neuronal acetylcholine receptor; alpha2/beta4 (Rattus norvegicus, UniProt P12389+P12392); test: Inhibition of rat alpha2/beta4 nAChR expressed in Stage V-VI Xenopus laevis Oocytes assessed as inhibition of acetylcholine-induced current in presence of acetylcholine by electrophysiological recording; assay type: cell-based, Oocyte
Sequence of Neuronal acetylcholine receptor; alpha2/beta4 (P12389 whole entry): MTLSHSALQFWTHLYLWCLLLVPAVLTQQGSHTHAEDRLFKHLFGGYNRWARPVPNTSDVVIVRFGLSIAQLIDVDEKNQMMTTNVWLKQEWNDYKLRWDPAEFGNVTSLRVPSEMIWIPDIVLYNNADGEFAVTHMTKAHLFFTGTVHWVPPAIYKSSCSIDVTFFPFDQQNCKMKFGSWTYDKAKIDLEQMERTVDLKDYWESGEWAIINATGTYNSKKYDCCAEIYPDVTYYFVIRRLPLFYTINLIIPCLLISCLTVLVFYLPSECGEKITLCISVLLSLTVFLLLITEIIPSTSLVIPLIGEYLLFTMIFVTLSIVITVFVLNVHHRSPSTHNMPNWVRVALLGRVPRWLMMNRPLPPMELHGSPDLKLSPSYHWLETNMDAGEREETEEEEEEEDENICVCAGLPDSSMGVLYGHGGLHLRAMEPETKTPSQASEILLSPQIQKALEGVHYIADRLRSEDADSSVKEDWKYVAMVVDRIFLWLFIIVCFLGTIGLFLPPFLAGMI
Sequence of Neuronal acetylcholine receptor; alpha2/beta4 (P12392 whole entry): as the sequence (P12392 whole entry) above

[15] = target: Nicotinic acetylcholine receptor alpha6/alpha3/beta2/beta3 (Rattus norvegicus, UniProt P04757+P12390+P12391+P43143); test: Inhibition of rat alpha6/alpha3beta2beta3 nAChR expressed in Stage V-VI Xenopus laevis Oocytes assessed as inhibition of acetylcholine-induced current in presence of acetylcholine by electrophysiological recording; assay type: cell-based, Oocyte
[16] = target: Neuronal acetylcholine receptor; alpha2/beta2 (Rattus norvegicus) (UniProt P12389+P12390); test: Inhibition of rat alpha2/beta2 nAChR expressed in Stage V-VI Xenopus laevis Oocytes assessed as inhibition of acetylcholine-induced current at 10 uM in presence of acetylcholine by electrophysiological recording relative to control; assay type: cell-based; settings: Oocyte
[17] = target: Neuronal acetylcholine receptor; alpha3/beta4 (Rattus norvegicus) (UniProt P04757+P12392); test: Inhibition of rat alpha3/beta4 nAChR expressed in Stage V-VI Xenopus laevis Oocytes assessed as inhibition of acetylcholine-induced current at 10 uM in presence of acetylcholine by electrophysiological recording relative to control; assay type: cell-based; settings: Oocyte
[18] = target: Neuronal acetylcholine receptor subunit alpha-7 (Rattus norvegicus, UniProt Q05941); test: Inhibition of rat alpha7 nAChR expressed in Stage V-VI Xenopus laevis Oocytes assessed as inhibition of acetylcholine-induced current in presence of acetylcholine by electrophysiological recording; assay type: cell-based, Oocyte
[19] = target: Nicotinic acetylcholine receptor alpha6/alpha3/beta2/beta3 (Rattus norvegicus) (UniProt P04757+P12390+P12391+P43143); test: Inhibition of rat alpha6/alpha3beta2beta3 nAChR expressed in Stage V-VI Xenopus laevis Oocytes assessed as inhibition of acetylcholine-induced current at 10 uM in presence of acetylcholine by electrophysiological recording relative to control; assay type: cell-based; settings: Oocyte
[20] = target: Neuronal acetylcholine receptor subunit alpha-7 (Rattus norvegicus) (UniProt Q05941); test: Inhibition of rat alpha7 nAChR expressed in Stage V-VI Xenopus laevis Oocytes assessed as inhibition of acetylcholine-induced current at 10 uM in presence of acetylcholine by electrophysiological recording relative to control; assay type: cell-based; settings: Oocyte
[21] = target: Nicotinic acetylcholine receptor alpha9/alpha10 (Rattus norvegicus, UniProt P43144+Q9JLB5); test: Inhibition of rat alpha9/alpha10 nAChR expressed in Stage V-VI Xenopus laevis Oocytes assessed as inhibition of acetylcholine-induced current in presence of acetylcholine by electrophysiological recording; assay type: cell-based, Oocyte
Sequence of Nicotinic acetylcholine receptor alpha9/alpha10 (P43144 whole entry): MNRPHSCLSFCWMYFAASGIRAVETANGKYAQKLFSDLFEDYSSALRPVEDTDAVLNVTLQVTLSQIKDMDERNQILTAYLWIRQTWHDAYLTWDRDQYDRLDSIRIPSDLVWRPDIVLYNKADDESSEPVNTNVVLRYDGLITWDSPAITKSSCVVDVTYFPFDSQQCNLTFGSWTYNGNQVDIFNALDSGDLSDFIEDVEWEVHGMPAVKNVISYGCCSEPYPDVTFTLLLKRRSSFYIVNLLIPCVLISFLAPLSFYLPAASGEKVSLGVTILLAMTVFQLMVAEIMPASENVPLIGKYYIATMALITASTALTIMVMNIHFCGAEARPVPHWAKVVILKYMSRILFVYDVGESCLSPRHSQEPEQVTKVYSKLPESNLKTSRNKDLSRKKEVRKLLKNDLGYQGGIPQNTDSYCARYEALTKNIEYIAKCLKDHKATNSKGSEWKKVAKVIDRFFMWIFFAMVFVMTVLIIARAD
Sequence of Nicotinic acetylcholine receptor alpha9/alpha10 (Q9JLB5 whole entry): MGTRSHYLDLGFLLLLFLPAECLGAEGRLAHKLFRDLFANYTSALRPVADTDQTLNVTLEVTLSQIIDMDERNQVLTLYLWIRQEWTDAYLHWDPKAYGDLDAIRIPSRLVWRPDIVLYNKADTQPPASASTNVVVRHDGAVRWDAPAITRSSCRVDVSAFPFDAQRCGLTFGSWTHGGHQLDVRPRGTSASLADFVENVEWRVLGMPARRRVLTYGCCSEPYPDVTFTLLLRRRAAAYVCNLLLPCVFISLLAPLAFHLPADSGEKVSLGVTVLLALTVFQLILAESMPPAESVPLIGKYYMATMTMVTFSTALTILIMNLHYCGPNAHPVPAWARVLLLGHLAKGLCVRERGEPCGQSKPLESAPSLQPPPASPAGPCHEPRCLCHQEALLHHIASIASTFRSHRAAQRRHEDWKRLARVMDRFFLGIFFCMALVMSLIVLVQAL

[22] = target: Nicotinic acetylcholine receptor alpha1/beta1/epsilon/delta (Mus musculus, UniProt P02716+P04756+P09690+P20782); test: Inhibition of mouse alpha1/beta1deltaepsilon nAChR expressed in Stage V-VI Xenopus laevis Oocytes assessed as inhibition of acetylcholine-induced current in presence of acetylcholine by electrophysiological recording; assay type: cell-based, Oocyte
Sequence of Nicotinic acetylcholine receptor alpha1/beta1/epsilon/delta (P04756 whole entry): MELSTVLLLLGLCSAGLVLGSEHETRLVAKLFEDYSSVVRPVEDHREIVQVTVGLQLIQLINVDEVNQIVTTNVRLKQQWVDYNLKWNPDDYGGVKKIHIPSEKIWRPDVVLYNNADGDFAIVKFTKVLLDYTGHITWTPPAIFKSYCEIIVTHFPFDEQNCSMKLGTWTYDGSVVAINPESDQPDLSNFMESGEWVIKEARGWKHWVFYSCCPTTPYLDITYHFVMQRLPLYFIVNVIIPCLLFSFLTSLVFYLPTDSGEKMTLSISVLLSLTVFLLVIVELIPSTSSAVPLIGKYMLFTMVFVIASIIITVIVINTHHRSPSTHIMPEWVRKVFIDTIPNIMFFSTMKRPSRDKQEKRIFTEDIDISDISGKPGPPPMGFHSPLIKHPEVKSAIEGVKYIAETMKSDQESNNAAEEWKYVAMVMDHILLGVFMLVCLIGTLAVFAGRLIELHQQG
Sequence of Nicotinic acetylcholine receptor alpha1/beta1/epsilon/delta (P09690 whole entry): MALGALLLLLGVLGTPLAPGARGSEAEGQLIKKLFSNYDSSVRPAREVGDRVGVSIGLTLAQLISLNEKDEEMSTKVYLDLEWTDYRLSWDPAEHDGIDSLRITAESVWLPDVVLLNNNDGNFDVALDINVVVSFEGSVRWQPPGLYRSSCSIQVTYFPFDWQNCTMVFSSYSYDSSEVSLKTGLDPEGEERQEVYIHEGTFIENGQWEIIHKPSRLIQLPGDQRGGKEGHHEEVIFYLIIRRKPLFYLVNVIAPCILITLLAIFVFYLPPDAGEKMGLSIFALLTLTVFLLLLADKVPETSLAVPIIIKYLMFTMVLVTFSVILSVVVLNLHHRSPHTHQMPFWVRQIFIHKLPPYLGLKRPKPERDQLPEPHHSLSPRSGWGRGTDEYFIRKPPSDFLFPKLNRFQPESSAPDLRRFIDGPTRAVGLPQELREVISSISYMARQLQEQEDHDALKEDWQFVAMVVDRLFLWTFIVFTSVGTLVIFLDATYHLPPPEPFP
Sequence of Nicotinic acetylcholine receptor alpha1/beta1/epsilon/delta (P02716 whole entry): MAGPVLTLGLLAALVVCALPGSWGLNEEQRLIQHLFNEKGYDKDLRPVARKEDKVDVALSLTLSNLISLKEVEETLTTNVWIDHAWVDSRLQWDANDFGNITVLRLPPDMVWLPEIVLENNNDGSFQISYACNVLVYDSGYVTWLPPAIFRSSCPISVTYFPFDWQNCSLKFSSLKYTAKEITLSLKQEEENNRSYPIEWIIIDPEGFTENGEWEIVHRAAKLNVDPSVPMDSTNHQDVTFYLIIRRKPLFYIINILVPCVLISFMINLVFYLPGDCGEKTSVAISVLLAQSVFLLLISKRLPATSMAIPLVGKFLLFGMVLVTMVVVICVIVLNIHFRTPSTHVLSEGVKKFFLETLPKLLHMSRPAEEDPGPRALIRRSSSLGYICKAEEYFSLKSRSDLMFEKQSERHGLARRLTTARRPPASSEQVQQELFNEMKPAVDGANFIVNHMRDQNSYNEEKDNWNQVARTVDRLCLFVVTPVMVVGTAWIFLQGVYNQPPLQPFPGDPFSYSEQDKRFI
Sequence of Nicotinic acetylcholine receptor alpha1/beta1/epsilon/delta (P20782 whole entry): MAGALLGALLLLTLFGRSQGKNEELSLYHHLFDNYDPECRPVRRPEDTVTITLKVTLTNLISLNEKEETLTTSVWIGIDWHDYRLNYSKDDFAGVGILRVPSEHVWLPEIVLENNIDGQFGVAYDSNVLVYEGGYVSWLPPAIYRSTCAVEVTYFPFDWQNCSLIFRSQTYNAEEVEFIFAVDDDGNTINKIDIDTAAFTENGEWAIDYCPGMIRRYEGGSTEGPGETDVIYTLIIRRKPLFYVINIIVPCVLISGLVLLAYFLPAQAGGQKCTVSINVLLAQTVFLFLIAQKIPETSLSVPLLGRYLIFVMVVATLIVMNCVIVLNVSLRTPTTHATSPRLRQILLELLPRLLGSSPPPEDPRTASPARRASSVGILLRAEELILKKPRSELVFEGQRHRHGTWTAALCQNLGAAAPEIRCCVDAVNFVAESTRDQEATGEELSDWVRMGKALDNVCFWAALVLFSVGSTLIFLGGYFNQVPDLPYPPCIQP

Rattus norvegicus = species: Rattus norvegicus; test: Selectivity ratio of IC50 for rat alpha6/alpha3beta4 nAChR expressed in Stage V-VI Xenopus laevis oocytes in presence of acetylcholine to IC50 for rat alpha3beta4 nAChR expressed in Stage V-VI Xenopus laevis Oocytes in presence of acetylcholine by electrophysiological recording; assay type: cell-based
[23] = target: T1, Nicotinic acetylcholine receptor alpha6/alpha3/beta4; test: Inhibition of rat alpha6/alpha3beta4 nAChR expressed in Xenopus Oocytes in presence of acetylcholine by Voltage-clamp recording; assay type: cell-based

Row | Structure (SMILES) | IC50 [1] [µM] | TIME [2] [h] | inhibition [3] [%] | inhibition [4] [%] | IC50 [5] [µM] | IC50 [6] [µM] | IC50 [7] [µM] | inhibition [8] [%] | IC50 [9] [µM] | IC50 [10] [µM] | inhibition [11] [%] | inhibition [12] [%] | inhibition [13] [%] | IC50 [14] [µM] | IC50 [15] [µM] | inhibition [16] [%] | inhibition [17] [%] | IC50 [18] [µM] | inhibition [19] [%] | inhibition [20] [%] | also measured
1 | CC(C)[C@H](NC(=O)[C@H](Cc1cnc[nH]1)NC(=O)[C@H](CCCCN)NC(=O)[C@H](CS)NC(=O)[C@@H]1CCCN1C(=O)[C@@H]1CCCN1C(=O)[C@H](CC(N)=O)NC(=O)[C@H](C)NC(=O)[C@H](CS)NC(=O)[C@H](CS)NC(=O)C1CCC(=O)N1)C(=O)N[C@@H](CC(N)=O)C(=O)N[C@@H](CS)C(=O)N[C@@H](CCCNC(=N)N)C(N)=O (stereo not given in full) ([ξpGlu]CCANPPCKHVNCR-NH2) | 0.0818 | 0.15 | – | – | – | – | – | – | – | – | – | – | – | – | – | – | – | – | – | – | –
2 | CC(C)[C@H](NC(=O)[C@@H]1CCCN1C(=O)[C@H](CC(N)=O)NC(=O)[C@H](C)NC(=O)[C@H](CS)NC(=O)[C@H](CS)NC(=O)[C@@H](N)CC(=O)O)C(=O)N[C@@H](CS)C(=O)N[C@@H](CC(N)=O)C(=O)NCC(=O)N[C@@H](CCCCN)C(=O)N[C@@H](Cc1cnc[nH]1)C(=O)N[C@@H](CS)C(N)=O (H-DCCANPVCNGKHC-NH2) | 0.31 | – | < 50 | < 50 | > 10 | > 10 | > 10 | < 50 | > 10 | > 10 | < 50 | < 50 | < 50 | > 10 | > 10 | < 50 | < 50 | > 10 | < 50 | < 50 | IC50 [21]: > 10 µM; IC50 [22]: > 10 µM
3 | CC(C)C[C@H](NC(=O)[C@@H](NC(=O)[C@H](C)NC(=O)[C@H](CS)NC(=O)[C@@H]1CCCN1C(=O)[C@@H]1CCC(=O)N1C(=O)[C@H](C)NC(=O)[C@H](CO)NC(=O)[C@H](CS)NC(=O)[C@H](CS)NC(=O)CN)C(C)C)C(=O)N[C@@H](Cc1ccc(O)cc1)C(=O)N[C@@H](CS)C(N)=O | – | – | – | – | – | – | – | – | – | – | – | – | – | – | – | – | – | – | – | – | Ratio (Rattus norvegicus): 20; IC50 [23]: 0.0581 µM
4 | CC(C)[C@H](NC(=O)[C@H](CS)NC(=O)[C@H](C)NC(=O)[C@@H]1CCCN1C(=O)[C@H](CC(N)=O)NC(=O)[C@H](Cc1c[nH]c2ccccc12)NC(=O)[C@H](CS)NC(=O)[C@H](CS)NC(=O)CNC(=O)C1CC(NC(=O)[C@H](CO)NC(=O)C2CCC(=O)N2)CN1)C(=O)N[C@@H](CCCCN)C(=O)N[C@@H](CC(N)=O)C(=O)N[C@@H](CCCNC(=N)N)C(=O)N[C@@H](CS)C(N)=O (stereo not given in full) (H-[ξPro(4ξ-NH2)]([Ser-ξpGlu])GCCWNPACVKNRC-NH2) | 0.094 | 0.05 | – | – | – | – | – | – | – | – | – | – | – | – | – | – | – | – | – | – | –
5 | CC(C)[C@H](NC(=O)[C@@H]1CCCN1C(=O)[C@H](CC(N)=O)NC(=O)[C@H](C)NC(=O)[C@H](CS)NC(=O)[C@H](CS)NC(=O)CN)C(=O)N[C@@H](CS)C(=O)N[C@@H](CC(N)=O)C(=O)NCC(=O)N[C@@H](C)C(=O)N[C@@H](Cc1cnc[nH]1)C(=O)N[C@@H](CS)C(N)=O (H-GCCANPVCNGAHC-NH2) | 0.0723 | 0.217 | – | – | – | – | – | – | – | – | – | – | – | – | – | – | – | – | – | – | –
6 | CC(C)[C@@H]1NC(=O)[C@@H]2CCCN2C(=O)[C@H](CC(N)=O)NC(=O)[C@H](C)NC(=O)[C@@H]2CSSC[C@@H](C(=O)N[C@@H](CCC(N)=O)C(=O)O)NC(=O)[C@H](Cc3cnc[nH]3)NC(=O)[C@H](CCCCN)NC(=O)CNC(=O)[C@H](CC(N)=O)NC(=O)[C@H](CSSC[C@H](NC(=O)[C@@H](N)CC(=O)O)C(=O)N2)NC1=O (H-DCCANPVCNGKHCQ-OH; disulfide 2-8, 3-13) | 3.3 | – | < 50 | < 50 | > 10 | > 10 | > 10 | < 50 | > 10 | > 10 | < 50 | < 50 | < 50 | > 10 | > 10 | < 50 | < 50 | > 10 | < 50 | < 50 | IC50 [21]: > 10 µM; IC50 [22]: > 10 µM

— ChEMBL document CHEMBL5316324, “Discovery, Characterization, and Engineering of LvIC, an α4/4-Conotoxin That Selectively Blocks Rat α6/α3β4 Nicotinic Acetylcholine Receptors” (J Med Chem, 2023)
